Assay [1] relates to d(AGGGGTTTTCCCCT) hairpin duplex (DNA, hairpin) AGGGGTTTTCCCCT
The assay can be described thus: FID. As to conditions: 100 mM NaCl; 10 mM sodium cacodylate, 0.5 mM EDTA, pH 7.0, 20°C; thiazole orange 0.50 μM displaced.

The subject of assay [2] is Oxytricha Nova G-quadruplex d(GGGGTTTTGGGG) (DNA, G4) GGGGTTTTGGGG
The assay can be described thus: FID. As to conditions: 100 mM NaCl; 10 mM sodium cacodylate, 0.5 mM EDTA, pH 7.0, 20°C; thiazole orange 0.50 μM displaced.

The test system is the same in assay [3]. The assay can be described thus: UV melting, 260 nm. To be noted: 100 mM NaCl; 10 mM sodium cacodylate, 0.5 mM EDTA, pH 7.0; 5 μM quadruplex, ligand 1:1.
Assay [4] has the same test system. In words: fluorescence titration. To be noted: 100 mM NaCl; 10 mM sodium cacodylate, 0.5 mM EDTA, pH 7.0, 20°C.

This is an account of results in publication PMC7028757 (2020).

Molecules are shown by their SMILES.

Consider `CN(C)CCN1C(=O)c2ccc3c4c(ccc(c24)C1=O)C(=O)N(CCCNC(=O)NCCSC[C@H]1O[C@@H](O[C@@H]2[C@@H](O)[C@H](N)C[C@H](N)[C@H]2O[C@H]2O[C@H](CN)[C@@H](O)[C@H](O)[C@H]2N)[C@H](O)[C@@H]1O[C@H]1O[C@@H](CN)[C@@H](O)[C@H](O)[C@H]1N)C3=O`, for which the DC50 came to 0.83 µM in assay [1] and 7.89 µM in assay [2]. Besides, in assay [3], the ΔTm was 0.6 °C.

`CN1C(=Cc2cc[n+](C)c3ccccc23)Sc2ccccc21`: the binding result in assay [4] is on record as “yes”.

On to `NC[C@@H]1O[C@H](O[C@H]2[C@@H](O)[C@H](O[C@@H]3[C@@H](O)[C@H](N)C[C@H](N)[C@H]3O[C@H]3O[C@H](CN)[C@@H](O)[C@H](O)[C@H]3N)O[C@@H]2CO)[C@H](N)[C@@H](O)[C@@H]1O`, for which the DC50 came to 53.44 µM in assay [1] and 76.02 µM in assay [2]. Moreover, in assay [3], the ΔTm came to 0.0 °C.

In the case of `NC[C@@H]1O[C@H](O[C@H]2[C@@H](O)[C@H](O[C@@H]3[C@@H](O)[C@H](N)C[C@H](N)[C@H]3O[C@H]3O[C@H](CN)[C@@H](O)[C@H](O)[C@H]3N)O[C@@H]2CSCCNC(=O)CCCc2ccc3ccc4cccc5ccc2c3c45)[C@H](N)[C@@H](O)[C@@H]1O`, the DC50 in assay [1] is 2.61 µM; in assay [2], 4.73 µM. Moreover, the ΔTm in assay [3] was 1.9 °C.

For `NC[C@@H]1O[C@H](O[C@H]2[C@@H](O)[C@H](O[C@@H]3[C@@H](O)[C@H](N)C[C@H](N)[C@H]3O[C@H]3O[C@H](CN)[C@@H](O)[C@H](O)[C@H]3N)O[C@@H]2CSCCNC(=O)NCCCNC(=O)c2ccc3c(c2)C(=O)c2ccccc2C3=O)[C@H](N)[C@@H](O)[C@@H]1O`, the DC50 in assay [1] was found to be 0.75 µM; in assay [2], 0.30 µM. The ΔTm in assay [3] was 0.5 °C.

The term ΔTm denotes the change in melting temperature against a reference sample.
